From the kinase profiling compilation of Christmann-Franck et al. (2016)

Tests used:
Assay in all cases: radiometric filter-binding kinase assay, Kinase HotSpot
Conditions in all cases: compound 0.5 µM; ATP 10 µM
OXSR1 (human) = OXSR1 (human) (UniProt O95747)
BTK (human) = BTK (human) (UniProt Q06187)
PLK1 (human) = PLK1 (human) (UniProt P53350)
PIM3 (human) = PIM3 (human) (UniProt Q86V86)
MAP3K8 (human) = MAP3K8 (human) (UniProt P41279)
RPS6KB1 (human) = RPS6KB1 (human) (UniProt P23443)
TGFBR1 (human) = TGFBR1 (human) (UniProt P36897)
TXK (human) = TXK (human) (UniProt P42681)
MARK4 (human) = MARK4 (human) (UniProt Q96L34)
MAPKAPK3 (human) = MAPKAPK3 (human) (UniProt Q16644)
GRK7 (human) = GRK7 (human) (UniProt Q8WTQ7)
ITK (human) = ITK (human) (UniProt Q08881)
PRKD1 (human) = PRKD1 (human) (UniProt Q15139)
GRK4 (human) = GRK4 (human) (UniProt P32298)
NEK2 (human) = NEK2 (human) (UniProt P51955)
ULK3 (human) = ULK3 (human) (UniProt Q6PHR2)
TAOK1 (human) = TAOK1 (human) (UniProt Q7L7X3)
NEK11 (human) = NEK11 (human) (UniProt Q8NG66)
CDK4 CCND3 (human) = CDK4 CCND3 (human) (UniProt P30281+P11802)
[1] = molecular target: TYK2 JH1 catalytic (human) (UniProt P29597)
NEK6 (human) = NEK6 (human) (UniProt Q9HC98)
MAP3K5 (human) = MAP3K5 (human) (UniProt Q99683)
IRAK4 (human) = IRAK4 (human) (UniProt Q9NWZ3)
RPS6KA1 KD1 KD2 (human) = RPS6KA1 KD1 KD2 (human) (UniProt Q15418)
FGFR4 (human) = FGFR4 (human) (UniProt P22455)
NEK3 (human) = NEK3 (human) (UniProt P51956)
MAPK10 (human) = MAPK10 (human) (UniProt P53779)
MYO3B (human) = MYO3B (human) (UniProt Q8WXR4)
YES1 (human) = YES1 (human) (UniProt P07947)
INSR (human) = INSR (human) (UniProt P06213)
SIK2 (human) = SIK2 (human) (UniProt Q9H0K1)
HCK (human) = HCK (human) (UniProt P08631)
PBK (human) = PBK (human) (UniProt Q96KB5)
PIM2 (human) = PIM2 (human) (UniProt Q9P1W9)
PASK (human) = PASK (human) (UniProt Q96RG2)
TGFBR2 (human) = TGFBR2 (human) (UniProt P37173)
TNK2 (human) = TNK2 (human) (UniProt Q07912)
PRKCA (human) = PRKCA (human) (UniProt P17252)
ADRBK2 (human) = ADRBK2 (human) (UniProt P35626)
CHEK1 (human) = CHEK1 (human) (UniProt O14757)
MAP2K1 (human) = MAP2K1 (human) (UniProt Q02750)
TYRO3 (human) = TYRO3 (human) (UniProt Q06418)

Sequence of ITK (human) (Q08881 whole entry, looked up): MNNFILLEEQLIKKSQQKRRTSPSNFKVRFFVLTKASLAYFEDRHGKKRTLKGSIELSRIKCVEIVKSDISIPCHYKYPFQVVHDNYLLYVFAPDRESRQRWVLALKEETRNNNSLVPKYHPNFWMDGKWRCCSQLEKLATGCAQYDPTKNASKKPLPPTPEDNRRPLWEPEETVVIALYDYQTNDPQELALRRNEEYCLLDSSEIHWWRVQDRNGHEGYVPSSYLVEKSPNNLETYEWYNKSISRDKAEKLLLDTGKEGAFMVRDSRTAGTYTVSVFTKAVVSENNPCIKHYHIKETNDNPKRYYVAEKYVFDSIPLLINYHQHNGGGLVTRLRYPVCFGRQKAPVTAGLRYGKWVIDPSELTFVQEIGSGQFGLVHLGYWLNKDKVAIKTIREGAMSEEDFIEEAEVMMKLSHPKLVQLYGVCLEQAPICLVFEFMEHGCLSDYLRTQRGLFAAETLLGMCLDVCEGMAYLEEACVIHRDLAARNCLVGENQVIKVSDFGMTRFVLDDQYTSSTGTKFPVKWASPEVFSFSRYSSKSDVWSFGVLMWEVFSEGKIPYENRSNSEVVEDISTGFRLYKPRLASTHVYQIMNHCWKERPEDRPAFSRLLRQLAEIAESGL
Sequence of FGFR4 (human) (P22455 whole entry, looked up): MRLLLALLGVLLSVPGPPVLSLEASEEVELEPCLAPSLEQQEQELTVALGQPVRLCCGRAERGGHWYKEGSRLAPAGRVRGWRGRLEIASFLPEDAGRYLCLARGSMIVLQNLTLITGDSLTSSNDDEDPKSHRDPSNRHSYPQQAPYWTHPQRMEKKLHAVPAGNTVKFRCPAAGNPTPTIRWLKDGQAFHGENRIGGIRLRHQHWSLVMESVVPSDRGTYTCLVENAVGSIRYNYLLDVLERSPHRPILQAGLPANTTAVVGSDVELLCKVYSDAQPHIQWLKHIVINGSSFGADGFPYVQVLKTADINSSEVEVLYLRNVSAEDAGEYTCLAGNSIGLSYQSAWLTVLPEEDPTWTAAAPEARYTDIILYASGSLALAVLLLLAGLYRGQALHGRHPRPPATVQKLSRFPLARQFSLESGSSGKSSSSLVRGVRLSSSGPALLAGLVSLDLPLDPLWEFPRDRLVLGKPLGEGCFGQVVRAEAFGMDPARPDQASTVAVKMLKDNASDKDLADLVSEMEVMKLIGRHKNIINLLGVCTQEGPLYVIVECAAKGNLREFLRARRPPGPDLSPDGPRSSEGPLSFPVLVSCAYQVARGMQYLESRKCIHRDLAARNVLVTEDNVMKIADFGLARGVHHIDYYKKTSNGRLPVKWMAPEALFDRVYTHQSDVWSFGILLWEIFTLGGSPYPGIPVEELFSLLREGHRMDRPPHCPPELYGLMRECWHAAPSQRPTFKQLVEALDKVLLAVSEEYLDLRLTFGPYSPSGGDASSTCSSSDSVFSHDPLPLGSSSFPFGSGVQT
Sequence of PIM2 (human) (Q9P1W9 whole entry, looked up): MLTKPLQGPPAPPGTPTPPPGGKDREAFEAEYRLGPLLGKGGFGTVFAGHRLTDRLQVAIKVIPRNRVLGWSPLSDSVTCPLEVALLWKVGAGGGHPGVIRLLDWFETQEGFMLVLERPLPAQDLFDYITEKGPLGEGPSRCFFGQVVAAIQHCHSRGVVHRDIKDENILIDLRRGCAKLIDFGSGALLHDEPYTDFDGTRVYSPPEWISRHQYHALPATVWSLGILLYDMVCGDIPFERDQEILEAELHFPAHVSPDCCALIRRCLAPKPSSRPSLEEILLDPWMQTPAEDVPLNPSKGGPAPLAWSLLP
Sequence of HCK (human) (P08631 whole entry, looked up): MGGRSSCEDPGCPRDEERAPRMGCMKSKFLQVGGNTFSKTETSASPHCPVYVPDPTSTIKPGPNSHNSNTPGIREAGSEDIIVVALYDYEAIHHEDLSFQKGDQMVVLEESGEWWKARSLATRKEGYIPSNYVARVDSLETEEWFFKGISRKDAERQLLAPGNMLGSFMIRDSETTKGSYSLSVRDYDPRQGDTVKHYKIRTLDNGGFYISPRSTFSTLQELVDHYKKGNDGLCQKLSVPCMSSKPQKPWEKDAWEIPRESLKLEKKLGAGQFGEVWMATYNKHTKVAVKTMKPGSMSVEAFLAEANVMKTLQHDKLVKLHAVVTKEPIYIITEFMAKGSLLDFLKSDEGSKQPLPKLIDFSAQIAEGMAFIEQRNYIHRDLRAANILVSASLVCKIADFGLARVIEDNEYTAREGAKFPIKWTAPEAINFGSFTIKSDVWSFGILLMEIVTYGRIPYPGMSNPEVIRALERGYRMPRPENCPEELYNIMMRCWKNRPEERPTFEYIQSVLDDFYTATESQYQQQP
Sequence of NEK6 (human) (Q9HC98 whole entry, looked up): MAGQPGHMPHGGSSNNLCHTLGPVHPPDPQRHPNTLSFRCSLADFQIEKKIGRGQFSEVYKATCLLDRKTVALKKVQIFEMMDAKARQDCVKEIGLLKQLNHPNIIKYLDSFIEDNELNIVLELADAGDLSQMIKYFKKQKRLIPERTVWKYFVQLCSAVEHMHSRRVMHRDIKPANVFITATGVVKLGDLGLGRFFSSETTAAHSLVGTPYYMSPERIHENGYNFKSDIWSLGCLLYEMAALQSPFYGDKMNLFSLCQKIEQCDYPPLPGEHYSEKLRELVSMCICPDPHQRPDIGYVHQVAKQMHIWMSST
Sequence of NEK2 (human) (P51955 whole entry, looked up): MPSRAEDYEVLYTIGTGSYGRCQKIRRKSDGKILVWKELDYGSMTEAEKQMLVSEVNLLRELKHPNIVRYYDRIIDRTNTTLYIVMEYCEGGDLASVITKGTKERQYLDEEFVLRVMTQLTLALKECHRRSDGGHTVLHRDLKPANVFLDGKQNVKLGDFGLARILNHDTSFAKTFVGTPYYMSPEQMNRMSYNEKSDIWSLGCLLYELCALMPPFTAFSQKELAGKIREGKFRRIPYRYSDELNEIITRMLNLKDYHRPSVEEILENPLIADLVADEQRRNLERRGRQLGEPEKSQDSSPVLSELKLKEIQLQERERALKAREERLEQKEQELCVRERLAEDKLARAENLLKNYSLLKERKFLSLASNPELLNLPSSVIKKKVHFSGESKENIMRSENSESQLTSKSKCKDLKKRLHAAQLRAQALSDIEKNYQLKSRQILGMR
Sequence of PBK (human) (Q96KB5 whole entry, looked up): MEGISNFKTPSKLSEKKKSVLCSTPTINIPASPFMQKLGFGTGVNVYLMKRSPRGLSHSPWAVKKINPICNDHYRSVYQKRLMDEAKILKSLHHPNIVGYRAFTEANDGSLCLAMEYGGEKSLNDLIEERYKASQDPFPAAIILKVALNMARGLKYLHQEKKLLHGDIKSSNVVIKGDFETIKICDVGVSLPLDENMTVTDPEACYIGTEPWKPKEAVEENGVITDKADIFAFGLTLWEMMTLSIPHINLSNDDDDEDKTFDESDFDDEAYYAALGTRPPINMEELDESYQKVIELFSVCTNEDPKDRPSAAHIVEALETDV
Sequence of MAP3K8 (human) (P41279 whole entry, looked up): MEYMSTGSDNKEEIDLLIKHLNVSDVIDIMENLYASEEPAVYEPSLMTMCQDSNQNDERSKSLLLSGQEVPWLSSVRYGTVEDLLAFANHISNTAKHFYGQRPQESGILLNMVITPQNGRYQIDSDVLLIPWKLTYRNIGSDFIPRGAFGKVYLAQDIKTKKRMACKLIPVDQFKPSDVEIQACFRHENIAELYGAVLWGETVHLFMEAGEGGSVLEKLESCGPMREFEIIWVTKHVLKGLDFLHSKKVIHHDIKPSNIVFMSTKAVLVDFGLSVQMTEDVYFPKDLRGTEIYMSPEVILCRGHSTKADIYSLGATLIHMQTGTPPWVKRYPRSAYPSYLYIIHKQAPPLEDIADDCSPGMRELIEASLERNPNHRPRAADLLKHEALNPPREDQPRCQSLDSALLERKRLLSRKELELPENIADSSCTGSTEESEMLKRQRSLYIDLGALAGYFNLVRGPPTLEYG
Sequence of MAP2K1 (human) (Q02750 whole entry, looked up): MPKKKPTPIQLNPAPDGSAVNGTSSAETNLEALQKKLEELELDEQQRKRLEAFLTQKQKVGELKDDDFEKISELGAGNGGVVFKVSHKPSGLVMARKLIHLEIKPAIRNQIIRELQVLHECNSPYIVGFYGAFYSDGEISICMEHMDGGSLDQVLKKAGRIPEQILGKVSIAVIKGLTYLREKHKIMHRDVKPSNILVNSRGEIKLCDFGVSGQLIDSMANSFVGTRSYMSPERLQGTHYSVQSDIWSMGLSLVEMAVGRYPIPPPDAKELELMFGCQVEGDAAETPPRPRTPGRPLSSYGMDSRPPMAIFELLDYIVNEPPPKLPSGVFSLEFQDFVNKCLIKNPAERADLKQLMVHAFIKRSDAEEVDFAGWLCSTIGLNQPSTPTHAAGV
Sequence of YES1 (human) (P07947 whole entry, looked up): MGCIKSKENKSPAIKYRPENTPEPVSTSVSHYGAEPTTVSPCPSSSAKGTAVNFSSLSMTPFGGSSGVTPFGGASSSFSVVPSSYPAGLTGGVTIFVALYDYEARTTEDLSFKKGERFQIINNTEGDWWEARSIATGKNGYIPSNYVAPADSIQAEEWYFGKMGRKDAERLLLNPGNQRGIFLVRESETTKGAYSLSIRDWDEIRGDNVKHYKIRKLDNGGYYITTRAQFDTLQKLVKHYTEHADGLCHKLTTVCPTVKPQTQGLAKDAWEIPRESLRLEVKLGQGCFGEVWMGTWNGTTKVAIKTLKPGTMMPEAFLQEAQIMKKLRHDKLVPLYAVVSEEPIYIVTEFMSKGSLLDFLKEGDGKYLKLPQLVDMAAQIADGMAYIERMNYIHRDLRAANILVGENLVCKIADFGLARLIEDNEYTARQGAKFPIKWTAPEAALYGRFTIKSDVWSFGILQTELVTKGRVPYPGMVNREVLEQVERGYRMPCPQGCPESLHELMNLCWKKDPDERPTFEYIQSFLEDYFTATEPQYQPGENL

For `O=C1NC(=O)c2c1c1c3ccccc3n3c1c1c2c2ccccc2n1C1CCC3O1`, the residual activity (OXSR1 (human)) was 92.4%, the residual activity (BTK (human)) was 43.3% and the residual activity (PLK1 (human)) was 50.2%. It also gave a residual activity (PIM3 (human)) of 0.238%, a residual activity (MAP3K8 (human)) of 94.6% and a residual activity (RPS6KB1 (human)) of 2.38%. The residual activity (TGFBR1 (human)) was 110%, the residual activity (TXK (human)) was 22.7% and the residual activity (MARK4 (human)) was 5.31%. The residual activity (MAPKAPK3 (human)) was 93.1%, the residual activity (GRK7 (human)) was 53.4% and the residual activity (ITK (human)) was 8.29%. The residual activity (PRKD1 (human)) was 1.89%, the residual activity (GRK4 (human)) was 77% and the residual activity (NEK2 (human)) was 93.8%. The residual activity (ULK3 (human)) was 33%, the residual activity (TAOK1 (human)) was 66.9% and the residual activity (NEK11 (human)) was 60.6%. It also gave a residual activity (CDK4 CCND3 (human)) of 22.2%, a residual activity [1] of 4.32% and a residual activity (NEK6 (human)) of 93.1%. For the same molecule, the residual activity (MAP3K5 (human)) was 56.2%, the residual activity (IRAK4 (human)) was 14% and the residual activity (RPS6KA1 KD1 KD2 (human)) was 1.58%. The residual activity (FGFR4 (human)) was 70.4%, the residual activity (NEK3 (human)) was 102% and the residual activity (MAPK10 (human)) was 138%. For the same molecule, the residual activity (MYO3B (human)) was 19.1%, the residual activity (YES1 (human)) was 31.9% and the residual activity (INSR (human)) was 17.2%. For the same molecule, the residual activity (SIK2 (human)) was 33.9%, the residual activity (HCK (human)) was 24.8% and the residual activity (PBK (human)) was 39.9%. The residual activity (PIM2 (human)) was 1.86%, the residual activity (PASK (human)) was 43.3% and the residual activity (TGFBR2 (human)) was 70.3%. It also gave a residual activity (TNK2 (human)) of 2.39%, a residual activity (PRKCA (human)) of 13.9% and a residual activity (ADRBK2 (human)) of 101%. It also gave a residual activity (CHEK1 (human)) of 3.63%, a residual activity (MAP2K1 (human)) of 29.5% and a residual activity (TYRO3 (human)) of 55.3%.

For `CCC(=O)Nc1ccc2ncnc(Nc3cccc(Br)c3)c2c1`, the residual activity (OXSR1 (human)) was 107%, the residual activity (BTK (human)) was 89.4% and the residual activity (PLK1 (human)) was 95.3%. For the same molecule, the residual activity (PIM3 (human)) was 76.6%, the residual activity (MAP3K8 (human)) was 93% and the residual activity (RPS6KB1 (human)) was 91.2%. For the same molecule, the residual activity (TGFBR1 (human)) was 101%, the residual activity (TXK (human)) was 90.5% and the residual activity (MARK4 (human)) was 80.2%. For the same molecule, the residual activity (MAPKAPK3 (human)) was 90.2%, the residual activity (GRK7 (human)) was 105% and the residual activity (ITK (human)) was 89.7%. The residual activity (PRKD1 (human)) was 97.9%, the residual activity (GRK4 (human)) was 96.2% and the residual activity (NEK2 (human)) was 87.5%. It also gave a residual activity (ULK3 (human)) of 97.5%, a residual activity (TAOK1 (human)) of 79.1% and a residual activity (NEK11 (human)) of 103%. For the same molecule, the residual activity (CDK4 CCND3 (human)) was 90.4%, the residual activity [1] was 90.2% and the residual activity (NEK6 (human)) was 105%. The residual activity (MAP3K5 (human)) was 102%, the residual activity (IRAK4 (human)) was 79.8% and the residual activity (RPS6KA1 KD1 KD2 (human)) was 88.7%. The residual activity (FGFR4 (human)) was 95.2%, the residual activity (NEK3 (human)) was 99.6% and the residual activity (MAPK10 (human)) was 96.5%. It also gave a residual activity (MYO3B (human)) of 135%, a residual activity (YES1 (human)) of 87% and a residual activity (INSR (human)) of 101%. For the same molecule, the residual activity (SIK2 (human)) was 98.7%, the residual activity (HCK (human)) was 93% and the residual activity (PBK (human)) was 96.2%. The residual activity (PIM2 (human)) was 90.3%, the residual activity (PASK (human)) was 88.7% and the residual activity (TGFBR2 (human)) was 116%. The residual activity (TNK2 (human)) was 93.5%, the residual activity (PRKCA (human)) was 96.5% and the residual activity (ADRBK2 (human)) was 99.2%. It also gave a residual activity (CHEK1 (human)) of 114%, a residual activity (MAP2K1 (human)) of 105% and a residual activity (TYRO3 (human)) of 101%.

With `CO[C@H]1CC2CC[C@@H](C)[C@@](O)(O2)C(=O)C(=O)N2CCCC[C@H]2C(=O)OC([C@H](C)C[C@@H]2CC[C@@H](O)[C@H](OC)C2)CC(=O)[C@H](C)/C=C(\C)[C@@H](O)[C@@H](OC)C(=O)[C@H](C)C[C@H](C)/C=C/C=C/C=C/1C` (stereo partly specified) the residual activity (OXSR1 (human)) was 96.6%, the residual activity (BTK (human)) was 101% and the residual activity (PLK1 (human)) was 97.8%. The residual activity (PIM3 (human)) was 106%, the residual activity (MAP3K8 (human)) was 99.8% and the residual activity (RPS6KB1 (human)) was 92.6%. The residual activity (TGFBR1 (human)) was 99.5%, the residual activity (TXK (human)) was 105% and the residual activity (MARK4 (human)) was 99.1%. It also gave a residual activity (MAPKAPK3 (human)) of 90.9%, a residual activity (GRK7 (human)) of 98% and a residual activity (ITK (human)) of 92.5%. It also gave a residual activity (PRKD1 (human)) of 98.2%, a residual activity (GRK4 (human)) of 96.1% and a residual activity (NEK2 (human)) of 107%. The residual activity (ULK3 (human)) was 85.6%, the residual activity (TAOK1 (human)) was 102% and the residual activity (NEK11 (human)) was 73.6%. For the same molecule, the residual activity (CDK4 CCND3 (human)) was 104%, the residual activity [1] was 107% and the residual activity (NEK6 (human)) was 97.7%. It also gave a residual activity (MAP3K5 (human)) of 107%, a residual activity (IRAK4 (human)) of 123% and a residual activity (RPS6KA1 KD1 KD2 (human)) of 104%. The residual activity (FGFR4 (human)) was 76.6%, the residual activity (NEK3 (human)) was 99% and the residual activity (MAPK10 (human)) was 95.9%. It also gave a residual activity (MYO3B (human)) of 106%, a residual activity (YES1 (human)) of 101% and a residual activity (INSR (human)) of 90.3%. For the same molecule, the residual activity (SIK2 (human)) was 94.3%, the residual activity (HCK (human)) was 102% and the residual activity (PBK (human)) was 103%. It also gave a residual activity (PIM2 (human)) of 102%, a residual activity (PASK (human)) of 101% and a residual activity (TGFBR2 (human)) of 136%. The residual activity (TNK2 (human)) was 98.5%, the residual activity (PRKCA (human)) was 108% and the residual activity (ADRBK2 (human)) was 98%. For the same molecule, the residual activity (CHEK1 (human)) was 107%, the residual activity (MAP2K1 (human)) was 92.1% and the residual activity (TYRO3 (human)) was 98.5%.
